The results in this text go back to US20210169899A1, “COMPOSITIONS AND THEIR USE IN ORAL DOSING REGIMENS” (Lipocine Inc., priority 2014, published 2021).

The data set can be described thus: Clinical trial of oral testosterone undecanoate TRT in hypogonadal males, 24 hour PK profiles of serum testosterone with dose titration at weeks 3 and 7. In kind it is in vivo, human. As for the experimental part:
Specifically, 24 hour pharmacokinetic profiles for serum testosterone were determined for hypogonadal subjects receiving 225 mg TU twice daily with a meal after 3 weeks of treatment. The titration or dose adjustment was made based on the serum testosterone Cavg0-24 value calculated from the 24 hour pharmacokinetic profile (or the Cmax value). Another titration or dose adjustment was made similarly at 7 weeks. The titration or adjustment criteria used during the study is shown in the first column of Table A with the titration decision (dose adjustment) is shown in column 3.
A clinical trial was performed as set forth below in regards to the TRT disclosed herein.
Diagnosis of primary or secondary hypogonadism Male, 18 to 80 years of age, hypogonadism onset prior to age 65 Serum T<300 ng/dL, based on 2 consecutive samples, obtained on two separate days (6 to 10 AM) either naïve or following appropriate washout.
IPSS≥19 points PSA>2 ng/mL
Hemoglobin <11.5 or >16.5 g/dL; Hematocrit <35 or >54% History of myocardial infarction; prostate or breast cancer; uncontrolled, untreated obstructive sleep apnea; gastric surgery, HIV, Hepatitis, seizures or convulsions Subjects with a partner who is pregnant or planning to become pregnant during the study A total of 314 subjects were enrolled and randomized into the TRT arm or active control arm. The clinical trial design is outlined in FIG. 1. Starting dose: 225 mg testosterone undecanoate (TU) (equivalent to 142 mg testosterone) twice daily, 12 hours apart, with standard meals Two dose titration periods based on full 24 hour PK profile at Week 3 and 7
The dose range was 150 mg to 300 mg BID (total daily dose of 300 mg to 600 mg TU).
Efficacy Population (N=153): Subjects randomized into the study with at least one PK profile and no significant protocol deviations (includes imputed missing data/LOCF)
Safety Set (N=210): Subjects randomized into the study and took at least one dose of the drug Imputed missing data by Last Observation Carried Forward (LOCF), or considered treatment failures if no PK data available Full Analysis Set (N=193): Subjects randomized into the study with at least one PK profile (includes imputed missing data/LOCF) Per Protocol Set (N=132): Subjects who completed Week 13 without significant protocol deviations Primary endpoint target ≥75% subjects should achieve Cavg within normal range (300 ng/dL to 1140 ng/dL) and >65% lower bound 95% CI

The mark [1] stands for this setting: serum total T, Efficacy Population.

For `CCCCCCCCCCC(=O)O[C@H]1CC[C@H]2[C@@H]3CCC4=CC(=O)CC[C@]4(C)[C@H]3CC[C@]12C` [testosterone undecanoate], for the setting “Efficacy Population”, the “95% CI lower bound of % subjects with Cavg within normal range” value (shortened to “95% CI lower bound of % subjects”) was 81.9%, the “% of subjects with Cavg < 300 ng/dL” value amounted to 11.2% and the “% of subjects with Cavg > 1140 ng/dL” value is given as 0.7%. The “% subjects with Cavg within normal range” value (Efficacy Population, serum testosterone Cavg 300 ng/dL to 1140 ng/dL) stood at 88.2%. For the same molecule, the “95% CI lower bound of % subjects” value (Full Analysis Set) was 82.0%. For the same molecule, the “% subjects with Cavg within normal range” value (Full Analysis Set, Cavg 300 ng/dL to 1140 ng/dL) is 87.5%. Besides, the “95% CI lower bound of % subjects” value (Per Protocol Set) is reported as 81.1%. In addition, under “Per Protocol Set, Cavg 300 ng/dL to 1140 ng/dL”, the “% subjects with Cavg within normal range” value worked out at 87.9%. The “95% CI lower bound of % subjects” value (Safety Set) was found to be 73.8%. Besides, the “% subjects with Cavg within normal range” value (Safety Set, Cavg 300 ng/dL to 1140 ng/dL) was 80.0%. In addition, where the note is “comparison table”, the “AM - PM effect” value is recorded as “Not much different AM - PM”, the “Subjects with Cavg < 300 ng/dL” value stood at 11%, the “Variability (CV) of Cavg” value was found to be 37% and the “Variability (CV) of Cmax” value is given as 45%. For the same molecule, where the note is “comparison table, serum testosterone”, the “Mean Cavg” value came out at 447 ng/dL. For the same molecule, where the note is “comparison table, starting daily dose 450 mg TU”, the “Efficacy (% subjects with Cavg in normal range)” value was “analysis (88.2%)”. In addition, the “24 hour pharmacokinetic profiles at weeks 3, 7 and 13 (FIG. 2)” value (patients without dose change during the trial) is given as “consistent inter-day pharmacokinetics”. The “Cavg, Mean (CV)” value (serum testosterone, Efficacy Population) is listed as 447 (37%) ng/dL. For the same molecule, under setting [1], the “Proportion of subjects with 1800 ≤ Cmax ≤ 2500 ng/dL” value is recorded as 4.6%, the “Proportion of subjects with Cmax < 1500 ng/dL” value came to 82.9% and the “Proportion of subjects with Cmax > 2500 ng/dL” value amounted to 2.0%. Besides, the “% subjects with serum testosterone Cavg0-24 h within the normal range” value (subjects treated with TRT and titration scheme) is on record as “about 87%”.
